Test results: the NIST ThermoML archive (doi:10.1021/je4003916)

Assay: xn = mol fraction of the nth substance listed
Conditions: 101 kPa, Liquid, stabinger viscometer

COC(=O)CCCCC(=O)OC [dimethyl 1,6-hexanedioate] + CCCCO
viscosity [mPa·s]
Conditions	x1 = 0.0999	x1 = 0.2004	x1 = 0.2999	x1 = 0.4003	x1 = 0.4999	x1 = 0.6007	x1 = 0.6996	x1 = 0.7994	x1 = 0.8991	x1 = 1
288.15 K	2.635	2.426	2.384	2.422	2.519	2.66	2.884	3.08	3.379	3.751
293.15 K	2.322	2.147	2.114	2.149	2.237	2.361	2.556	2.723	2.977	3.289
298.15 K	2.057	1.911	1.886	1.92	2.003	2.11	2.287	2.425	2.649	2.91
303.15 K	1.837	1.716	1.699	1.732	1.805	1.902	2.06	2.183	2.374	2.604
308.15 K	1.646	1.546	1.536	1.569	1.636	1.724	1.868	1.975	2.144	2.343
313.15 K	1.481	1.4	1.396	1.428	1.491	1.572	1.704	1.797	1.947	2.121
318.15 K	1.338	1.272	1.273	1.306	1.365	1.44	1.562	1.645	1.778	1.933
323.15 K	1.229	1.176	1.179	1.214	1.268	1.339	1.456	1.528	1.648	1.79
